# Assay results as given in publication PMC9603373 (Microbiology Spectrum, 2022).
# Like-named read-outs stand apart in the source and are kept apart here. Marks after values point to notes of the source that are not given here.
# Tests used:
# in vivo = conditions: male, Wistar, rat, plasma, SD
# Experimental: (§1) The experiments were performed in triplicate. […] Plasma was collected via centrifugation, and the samples were stored at −80°C until analysis.
# (§2) All of the UHPLC-ESI-MS/MS analyses were performed using an Agilent 1290 UHPLC system coupled with an Agilent 6460 triple quadrupole mass spectrometer (Agilent Technologies, Santa Clara, CA, USA).
# [1] = Single-dose pharmacokinetics in healthy rats; conditions: for auc / cmax: rounded mean of the PK study, repeated per rat; for AUC0–24: healthy male Wistar rats, UHPLC-ESI-MS/MS, mean (SD), n = 3, SD; for AUC0–24 / conc: plasma
# Experimental: as §1, §2
# [2] = tested on: daptomycin nonsusceptible Enterococcus faecium (NTUH688); assay: Rat infective endocarditis model, DNSE; format: in vivo; conditions: for blood_cfu / log_blood_cfu / log_veg_cfu / veg_cfu / veg_sterile: DNSE MIC 8, delay 48 h; for Bacterial load in blood / Rate of sterile vegetation / Bacterial load of vegetation: Wistar rat IE, DNSE MIC 8 mg/L, 48 h from inoculation to treatment; for Bacterial load in blood / Bacterial load of vegetation: mean (SD), SD; for Bacterial load in blood / Rate of sterile vegetation: n = 3; for Bacterial load of vegetation: sacrifice 24 h after last dose, n = 3, detection limit 2 log10 CFU/g; for veg_sterile: flag 1/0;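 for all read-outs here: Catheter-induced aortic valve endocarditis in male Wistar rats, treated 3 days, bacteria counted by plating vegetation and blood homogenates on brain heart infusion agar, control rats given phosphate-buffered saline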
# Experimental: Approval for animal use was obtained from the National Taiwan University Institutional Animal Care and Use Committee before the commencement of the experiments. Endocarditis was induced in male Wistar rats weighing ~330 g by using previously developed methodologies with slight modifications ([46]). To expose the right carotid artery for the placement of an intravascular catheter, the animals were anesthetized with 1 μL/g of Zoletil 50 (1 mg/mL) plus Rompun (23.32 mg/mL). A sterile polyethylene catheter (Intramedic PE-10; Clay Adams, Parsippany, NJ, USA) was inserted through a small incision and advanced 4 cm into the left ventricle. The catheter was ligated and left in place for the duration of the experiment. 24 h after the catheter was placed across the aortic valve, the bacterial inoculum, which was presuspended in saline, and 1 mL of 10^8 CFU/mL of VRE were administered intravenously via the tail vein. We evaluated the actual inoculum based on the CFU count. The rats received antibiotic treatment at 24 h or 48 h after the bacterial inoculation.
# The animals were treated for 3 days. A group of infected but phosphate-buffered saline-treated rats was used as a control. 24 h after the last treatment, the animals were sacrificed via anesthetic overdose. The aortic valve vegetation and 1 mL of blood were obtained aseptically from the sacrificed animals, weighed, and homogenized in 1 mL of phosphate-buffered saline. Serial dilutions of homogenized tissues were performed, and 100 μL of each dilution, including the undiluted sample, were plated on brain heart infusion agar to enumerate the bacteria. The animals were included in the final analysis only if they survived the entire therapy and if their catheters were found across the aortic valve in the left ventricle. The detection limit of the bacterial load of vegetation was 2 log10 CFU/g.
# [3] = human healthy volunteers, cited from earlier work; for cmax: mean
# Experimental: Therefore, 45 mg/kg s.c. and 90 mg/kg s.c might represent human doses of 8 mg/kg and 12 mg/kg, respectively ([34]). […] Since the efficacy was much more pronounced in the infrequently administered dosing regimens, Cmax/MIC is likely the most predictive ([35], [36]). The selected rat dose from which to simulate the human dose is slightly different from the others ([37][–][39 ...
# [4] = 45 mg/kg sc, rat 1 of 3 (row order)
# [5] = 45 mg/kg sc, rat 2 of 3 (row order)
# [6] = 45 mg/kg sc, rat 3 of 3 (row order)
# [7] = 90 mg/kg sc, rat 1 of 3 (row order)
# [8] = 90 mg/kg sc, rat 2 of 3 (row order)
# [9] = 90 mg/kg sc, rat 3 of 3 (row order)
smiles,measurement,setting,value
"CCCCCCCCCC(=O)N[C@@H](Cc1c[nH]c2ccccc12)C(=O)N[C@H](CC(N)=O)C(=O)N[C@@H](CC(=O)O)C(=O)N[C@@H]1C(=O)NCC(=O)N[C@@H](CCCN)C(=O)N[C@@H](CC(=O)O)C(=O)N[C@H](C)C(=O)N[C@@H](CC(=O)O)C(=O)NCC(=O)N[C@H](CO)C(=O)N[C@@H]([C@H](C)CC(=O)O)C(=O)N[C@@H](CC(=O)c2ccccc2N)C(=O)O[C@@H]1C [daptomycin, Daptomycin]",Tmax,"in vivo; iv, 12 mg/kg",0.3 h
same,cmax,"in vivo; iv, 12 mg/kg",106000 ng/mL
same,half-life,"in vivo; iv, 12 mg/kg",4.6 h
same,Tmax,"in vivo; sc, 45 mg/kg",3.3 h
same,cmax,"in vivo; sc, 45 mg/kg",123000 ng/mL
same,half-life,"in vivo; sc, 45 mg/kg",3 h
same,Tmax,"in vivo; sc, 90 mg/kg",3.3 h
same,cmax,"in vivo; sc, 90 mg/kg",178000 ng/mL
same,half-life,"in vivo; sc, 90 mg/kg",2.9 h
same,auc,[1]; 12 mg/kg iv,228
same,cmax,[1]; 12 mg/kg iv,106
same,auc,[1]; 45 mg/kg sc,987
same,cmax,[1]; 45 mg/kg sc,123
same,auc,[1]; 90 mg/kg sc,2054
same,cmax,[1]; 90 mg/kg sc,179
same,AUC0–24,[1]; single dose 12 mg/kg i.v.,228.2 (15.7) mg × h/L
same,AUC0–24,[1]; single dose 45 mg/kg s.c.,986.7 (185.6) mg × h/L
same,AUC0–24,[1]; single dose 90 mg/kg s.c.,"2,053.6 (352.3) mg × h/L"
same,conc,"[1]; single dose 12 mg/kg i.v., time 0 h, rat id 1",71
same,conc,"[1]; single dose 12 mg/kg i.v., time 0 h, rat id 2",76
same,conc,"[1]; single dose 12 mg/kg i.v., time 0 h, rat id 3",171
same,conc,"[1]; single dose 12 mg/kg i.v., time 0.5 h, rat id 1",45
same,conc,"[1]; single dose 12 mg/kg i.v., time 0.5 h, rat id 2",4
same,conc,"[1]; single dose 12 mg/kg i.v., time 0.5 h, rat id 3",19
same,conc,"[1]; single dose 12 mg/kg i.v., time 1 h, rat id 1",70
same,conc,"[1]; single dose 12 mg/kg i.v., time 1 h, rat id 2",77
same,conc,"[1]; single dose 12 mg/kg i.v., time 1 h, rat id 3",81
same,conc,"[1]; single dose 12 mg/kg i.v., time 2 h, rat id 1",47
same,conc,"[1]; single dose 12 mg/kg i.v., time 2 h, rat id 2",41
same,conc,"[1]; single dose 12 mg/kg i.v., time 2 h, rat id 3",50
same,conc,"[1]; single dose 12 mg/kg i.v., time 3 h, rat id 1",31
same,conc,"[1]; single dose 12 mg/kg i.v., time 3 h, rat id 2",25
same,conc,"[1]; single dose 12 mg/kg i.v., time 3 h, rat id 3",27
same,conc,"[1]; single dose 12 mg/kg i.v., time 4 h, rat id 1",21
same,conc,"[1]; single dose 12 mg/kg i.v., time 4 h, rat id 2",21
same,conc,"[1]; single dose 12 mg/kg i.v., time 4 h, rat id 3",21
same,conc,"[1]; single dose 12 mg/kg i.v., time 5 h, rat id 1",10
same,conc,"[1]; single dose 12 mg/kg i.v., time 5 h, rat id 2",22
same,conc,"[1]; single dose 12 mg/kg i.v., time 5 h, rat id 3",12
same,conc,"[1]; single dose 12 mg/kg i.v., time 8 h, rat id 1",7
same,conc,"[1]; single dose 12 mg/kg i.v., time 8 h, rat id 2",3.76
same,conc,"[1]; single dose 12 mg/kg i.v., time 8 h, rat id 3",2.45
same,conc,"[1]; single dose 12 mg/kg i.v., time 12 h, rat id 1",1.45
same,conc,"[1]; single dose 12 mg/kg i.v., time 12 h, rat id 2",0
same,conc,"[1]; single dose 12 mg/kg i.v., time 12 h, rat id 3",1.2
same,conc,"[1]; single dose 12 mg/kg i.v., time 24 h, rat id 1",0
same,conc,"[1]; single dose 12 mg/kg i.v., time 24 h, rat id 2",0
same,conc,"[1]; single dose 12 mg/kg i.v., time 24 h, rat id 3",0
same,conc,"[1]; single dose 45 mg/kg s.c., time 0 h, rat id 1",4
same,conc,"[1]; single dose 45 mg/kg s.c., time 0 h, rat id 2",3.71
same,conc,"[1]; single dose 45 mg/kg s.c., time 0 h, rat id 3",2
same,conc,"[1]; single dose 45 mg/kg s.c., time 0.5 h, rat id 1",16
same,conc,"[1]; single dose 45 mg/kg s.c., time 0.5 h, rat id 2",19
same,conc,"[1]; single dose 45 mg/kg s.c., time 0.5 h, rat id 3",26
same,conc,"[1]; single dose 45 mg/kg s.c., time 1 h, rat id 1",55
same,conc,"[1]; single dose 45 mg/kg s.c., time 1 h, rat id 2",40
same,conc,"[1]; single dose 45 mg/kg s.c., time 1 h, rat id 3",44
same,conc,"[1]; single dose 45 mg/kg s.c., time 2 h, rat id 1",98
same,conc,"[1]; single dose 45 mg/kg s.c., time 2 h, rat id 2",64
same,conc,"[1]; single dose 45 mg/kg s.c., time 2 h, rat id 3",72
same,conc,"[1]; single dose 45 mg/kg s.c., time 3 h, rat id 1",82
same,conc,"[1]; single dose 45 mg/kg s.c., time 3 h, rat id 2",109
same,conc,"[1]; single dose 45 mg/kg s.c., time 3 h, rat id 3",142
same,conc,"[1]; single dose 45 mg/kg s.c., time 4 h, rat id 1",117
same,conc,"[1]; single dose 45 mg/kg s.c., time 4 h, rat id 2",89
same,conc,"[1]; single dose 45 mg/kg s.c., time 4 h, rat id 3",106
same,conc,"[1]; single dose 45 mg/kg s.c., time 5 h, rat id 1",93
same,conc,"[1]; single dose 45 mg/kg s.c., time 5 h, rat id 2",95
same,conc,"[1]; single dose 45 mg/kg s.c., time 5 h, rat id 3",84
same,conc,"[1]; single dose 45 mg/kg s.c., time 8 h, rat id 1",63
same,conc,"[1]; single dose 45 mg/kg s.c., time 8 h, rat id 2",68
same,conc,"[1]; single dose 45 mg/kg s.c., time 8 h, rat id 3",88
same,conc,"[1]; single dose 45 mg/kg s.c., time 12 h, rat id 1",52
same,conc,"[1]; single dose 45 mg/kg s.c., time 12 h, rat id 2",37
same,conc,"[1]; single dose 45 mg/kg s.c., time 12 h, rat id 3",29
same,conc,"[1]; single dose 45 mg/kg s.c., time 24 h, rat id 1",0.82
same,conc,"[1]; single dose 45 mg/kg s.c., time 24 h, rat id 2",0
same,conc,"[1]; single dose 45 mg/kg s.c., time 24 h, rat id 3",0.52
same,conc,"[1]; single dose 90 mg/kg s.c., time 0 h, rat id 1",5
same,conc,"[1]; single dose 90 mg/kg s.c., time 0 h, rat id 2",7
same,conc,"[1]; single dose 90 mg/kg s.c., time 0 h, rat id 3",4
same,conc,"[1]; single dose 90 mg/kg s.c., time 0.5 h, rat id 1",53
same,conc,"[1]; single dose 90 mg/kg s.c., time 0.5 h, rat id 2",42
same,conc,"[1]; single dose 90 mg/kg s.c., time 0.5 h, rat id 3",51
same,conc,"[1]; single dose 90 mg/kg s.c., time 1 h, rat id 1",58
same,conc,"[1]; single dose 90 mg/kg s.c., time 1 h, rat id 2",80
same,conc,"[1]; single dose 90 mg/kg s.c., time 1 h, rat id 3",57
same,conc,"[1]; single dose 90 mg/kg s.c., time 2 h, rat id 1",116
same,conc,"[1]; single dose 90 mg/kg s.c., time 2 h, rat id 2",143
same,conc,"[1]; single dose 90 mg/kg s.c., time 2 h, rat id 3",129
same,conc,"[1]; single dose 90 mg/kg s.c., time 3 h, rat id 1",125
same,conc,"[1]; single dose 90 mg/kg s.c., time 3 h, rat id 2",175
same,conc,"[1]; single dose 90 mg/kg s.c., time 3 h, rat id 3",200
same,conc,"[1]; single dose 90 mg/kg s.c., time 4 h, rat id 1",161
same,conc,"[1]; single dose 90 mg/kg s.c., time 4 h, rat id 2",148
same,conc,"[1]; single dose 90 mg/kg s.c., time 4 h, rat id 3",143
same,conc,"[1]; single dose 90 mg/kg s.c., time 5 h, rat id 1",158
same,conc,"[1]; single dose 90 mg/kg s.c., time 5 h, rat id 2",168
same,conc,"[1]; single dose 90 mg/kg s.c., time 5 h, rat id 3",179
same,conc,"[1]; single dose 90 mg/kg s.c., time 8 h, rat id 1",128
same,conc,"[1]; single dose 90 mg/kg s.c., time 8 h, rat id 2",151
same,conc,"[1]; single dose 90 mg/kg s.c., time 8 h, rat id 3",170
same,conc,"[1]; single dose 90 mg/kg s.c., time 12 h, rat id 1",78
same,conc,"[1]; single dose 90 mg/kg s.c., time 12 h, rat id 2",116
same,conc,"[1]; single dose 90 mg/kg s.c., time 12 h, rat id 3",84
same,conc,"[1]; single dose 90 mg/kg s.c., time 24 h, rat id 1",2
same,conc,"[1]; single dose 90 mg/kg s.c., time 24 h, rat id 2",6.44
same,conc,"[1]; single dose 90 mg/kg s.c., time 24 h, rat id 3",3.35
same,blood_cfu,[2]; [4],180
same,log_blood_cfu,[2]; [4],2.26
same,log_veg_cfu,[2]; [4],7
same,veg_cfu,[2]; [4],5410000
same,blood_cfu,[2]; [5],0
same,log_blood_cfu,[2]; [5],0
same,log_veg_cfu,[2]; [5],7
same,veg_cfu,[2]; [5],7620000
same,blood_cfu,[2]; [6],0
same,log_blood_cfu,[2]; [6],0
same,log_veg_cfu,[2]; [6],7
same,veg_cfu,[2]; [6],13600000
same,blood_cfu,[2]; [7],0
same,log_blood_cfu,[2]; [7],0
same,log_veg_cfu,[2]; [7],5
same,veg_cfu,[2]; [7],80400
same,blood_cfu,[2]; [8],0
same,log_blood_cfu,[2]; [8],0
same,log_veg_cfu,[2]; [8],5
same,veg_cfu,[2]; [8],110000
same,blood_cfu,[2]; [9],0
same,log_blood_cfu,[2]; [9],0
same,log_veg_cfu,[2]; [9],5.59
same,veg_cfu,[2]; [9],390000
same,Bacterial load in blood,[2]; 45 mg/kg/day s.c. 3 days,0.75 (1.30) log10 CFU/mL
same,Rate of sterile vegetation,[2]; 45 mg/kg/day s.c. 3 days,0
same,Bacterial load of vegetation,"[2]; 45 mg/kg/day s.c. 3 days, 45 mg/kg/day",6.92 (0.20)^f log10 CFU/g
same,Bacterial load in blood,[2]; 90 mg/kg/day s.c. 3 days,0 (0) log10 CFU/mL
same,Rate of sterile vegetation,[2]; 90 mg/kg/day s.c. 3 days,0
same,Bacterial load of vegetation,"[2]; 90 mg/kg/day s.c. 3 days, 90 mg/kg/day","5.18 (0.36)^g^,^h log10 CFU/g"
same,veg_sterile,[2]; [4],0
same,veg_sterile,[2]; [5],0
same,veg_sterile,[2]; [6],0
same,veg_sterile,[2]; [7],0
same,veg_sterile,[2]; [8],0
same,veg_sterile,[2]; [9],0
same,AUC0–24,[3]; 8 mg/kg i.v.,858.2 (24.9) mg × h/L
same,AUC0–24,[3]; 12 mg/kg i.v.,"1,277.4 (19.8) mg × h/L"
same,cmax,[3]; daily dose 8 mg/kg i.v.,123.3 (13.0) mg/L
same,cmax,[3]; daily dose 12 mg/kg i.v.,183.7 (13.6) mg/L
